Here are results for 53 compounds from PubChem BioAssay AID1996.

Each structure is given as a SMILES string. Converted amounts (≈) assume the structure as drawn.

The conditions of the series: buffer; pH 7.4; 200.0 µM.
Take `COc1ccc(CC(=O)O/N=C(\N)c2ccncc2)cc1`: the kinetic solubility – broadly, solubility judged after dilution from a stock solution rather than from solid – turned out to be 39.9 µg/mL (≈ 140 µM).
`O=C(c1cccc(S(=O)(=O)N2CCCc3ccccc32)c1)N1CCN(c2ccccc2)CC1` had a kinetic solubility of 3.6 µg/mL (≈ 7.8 µM).
In turn, `CNC(=S)/N=C(\Nc1ccc(C)cc1)c1ccccc1` yielded a kinetic solubility of 1.3 µg/mL (≈ 4.59 µM). This solubility kinetic is about 2.8-fold lower than that of the compound before.
In turn, `Nc1ccncc1Cl` registered a kinetic solubility of 16.3 µg/mL (≈ 127 µM). Against the preceding compound, the solubility kinetic is about 13-fold higher.
Under `Cc1nc(NC(=O)C2CC2)sc1C(=O)Nc1ccccc1Cl` stands 2.1 µg/mL (≈ 6.25 µM); under `CC(C)NC(=O)c1ccc(COc2cc(Cl)ccc2Cl)o1`, 2.8 µg/mL (≈ 8.53 µM).
With `Br.Cn1ccnc1SCC(=O)c1ccc(O)cc1`, the solubility (kinetic) is above 49.4 µg/mL.
In turn, `CN1CCN(C(=O)CNC(=O)Cc2ccc(Cl)cc2)CC1` registered a solubility (kinetic) above 46.5 µg/mL.
As for `CN(Cc1ccccc1)C(=O)COC(=O)c1cc(=O)[nH]c2ccccc12`, the figure is 34.4 µg/mL (≈ 98.2 µM); as for `CS(=O)(=O)N1Cc2ccccc2CC1C(=O)OCC(=O)NCCc1ccc(S(N)(=O)=O)cc1` (stereo not drawn), 59.1 µg/mL (≈ 119 µM).
As to `Cc1cc(C)n2nc(C(=O)OCC(=O)NCc3ccc(F)cc3)nc2n1`, the kinetic solubility is above 53.6 µg/mL.
`CC(=O)c1cccc(NC(=S)Nc2cccc3ccccc23)c1` registered a kinetic solubility of 10.6 µg/mL (≈ 33.1 µM).
As for `Cc1ccc(C)c(NC(=O)c2cc(C)nc3ccccc23)c1`, the solubility (kinetic) turned out to be 33.5 µg/mL (≈ 115 µM).
As for `Cc1ccccc1NC(=O)Cn1c(=O)oc2ccccc21`, the figure is 14.4 µg/mL (≈ 51 µM).
On to `CCOc1ccc(C(=O)Nc2ccccc2OC(F)F)cc1`, for which the kinetic solubility was found to be 6.1 µg/mL (≈ 19.9 µM). This solubility kinetic is about 2.4-fold lower than that of the compound before.
Under `O=C(O)CSc1nnc(-c2cccc(S(=O)(=O)N3CCOCC3)c2)n1-c1ccc(F)cc1` stands above 71.8 µg/mL.
Under `CCc1ccn2cc(-c3cc(-c4ccccc4)no3)nc2c1` stands 1.5 µg/mL (≈ 5.18 µM).
With `COC(=O)c1sccc1NC(=O)Nc1ccc(OC)c(OC)c1`, the solubility (kinetic) was above 50.5 µg/mL.
For `S=C1NCN(Cc2ccco2)CN1c1ccccc1`, the kinetic solubility was above 41 µg/mL.
In turn, `COc1cc(C(=O)NCCOc2ccccc2)cc(OC)c1OC` gave a solubility (kinetic) above 49.7 µg/mL.
For `CNC(=S)N1CCn2cccc2C1c1ccc(F)cc1` (stereo not drawn), the kinetic solubility worked out at 40.8 µg/mL (≈ 141 µM).
Under `COC(=O)c1ccccc1NC(=O)CSc1ncccn1` stands above 45.5 µg/mL.
For `CCCCNC1=NCCS1`, the solubility (kinetic) is above 23.7 µg/mL.
`CCc1nc(NC(=O)Cc2csc(C)n2)sc1C(=O)OC`: the kinetic solubility was above 48.8 µg/mL.
As for `COc1cc(C)c(CN2CC=C(c3ccc(F)cc3)CC2)cc1C`, the solubility (kinetic) was 8.5 µg/mL (≈ 26.1 µM).
For `COC(=O)Nc1ccc(S(=O)(=O)Nc2ncccn2)cc1`, the kinetic solubility is above 46.2 µg/mL.
In turn, `CCOC(=O)C1CCCN(C(=O)CN2C(=O)c3ccccc3S2(=O)=O)C1` (stereo not drawn) returned a kinetic solubility above 57.1 µg/mL.
`Cc1[nH]c2ccccc2c1CCNCc1ccco1.Cl` had a solubility (kinetic) above 43.6 µg/mL.
As for `CC(=O)N1c2ccccc2Sc2ccccc21`, the figure is 26.4 µg/mL (≈ 109 µM); as for `CCCCN(C)S(=O)(=O)c1cc2c3c(c1)CCC(=O)N3CCC2`, 48.6 µg/mL (≈ 144 µM); as for `CNC(=O)NC(=O)COc1c(F)c(F)cc(F)c1F`, 38.2 µg/mL (≈ 136 µM).
Under `CC(N=Cc1c(O)c2ccccc2oc1=O)C(=O)O` (stereo not drawn) stands above 39.2 µg/mL; under `CC(C)(C)c1ccc(C(CC(=O)O)NC(=O)CSc2ccccc2)cc1` (stereo not drawn), above 55.7 µg/mL.
Regarding `CC(C(=O)N1CCCC1)N1CCN(S(=O)(=O)c2ccccc2)CC1` (stereo not drawn), the solubility (kinetic) stood at 47.1 µg/mL (≈ 134 µM).
`CC(=O)N(OCc1ccc(OC(C)C)c(Cl)c1)C(C)=O` showed a solubility (kinetic) of 38.1 µg/mL (≈ 127 µM). The solubility kinetic values of the last two compounds are within 1.5-fold of each other.
In turn, `Cc1ccc(NS(=O)(=O)c2cccc([N+](=O)[O-])c2)nc1` returned a kinetic solubility of 14.6 µg/mL (≈ 49.8 µM). Compared with the last compound, the solubility kinetic is about 2.6-fold lower.
As for `O=C(CNC(=O)c1ccco1)Nc1ccc(Br)cc1`, the figure is 14.1 µg/mL (≈ 43.6 µM); as for `O=C(Nc1ccc(F)c(Cl)c1)c1cccnc1`, 24.5 µg/mL (≈ 97.7 µM); as for `Nc1cccc(S(=O)(=O)Nc2ccccc2)c1`, above 37.2 µg/mL.
Under `COc1ccc(OC)c(NC(=O)CN2CCc3ccccc3C2)c1` stands 14.9 µg/mL (≈ 45.7 µM).
In turn, `CN(C)C(=S)Nc1ccc(Br)cc1Cl` registered a solubility (kinetic) of 23.4 µg/mL (≈ 79.7 µM).
As for `CN(C)c1nc(N(C)C)nc(N(C#N)CCCl)n1`, the figure is 19.2 µg/mL (≈ 71.2 µM).
On to `COCCCn1c(=NC(C)=O)c(C#N)cc2c(=O)n3cccc(C)c3nc21`, for which the solubility (kinetic) was 52.3 µg/mL (≈ 143 µM).
For `CCC1CN(C(=O)NCc2ccc(F)cc2)c2cc(C)ccc2O1` (stereo not drawn), the solubility (kinetic) is 4.3 µg/mL (≈ 13.1 µM).
As for `COc1cc2c(cc1OC)CN(C(=O)/C=C/c1cccs1)CC2`, the figure is above 49.4 µg/mL; as for `CN1CCC(OC(=O)c2ccco2)CC1.Cl`, above 36.9 µg/mL.
As to `CCOC(=O)N1CCc2c(sc3[nH]c(=S)[nH]c(=S)c23)C1`, the solubility (kinetic) was found to be 43.1 µg/mL (≈ 132 µM).
As for `Cc1cc(C)c(C)c(OCCn2ccnc2)c1`, the figure is 31.4 µg/mL (≈ 136 µM); as for `O=C(NC1CCCCCC1)c1ccc[nH]c1=S`, above 37.6 µg/mL.
For the compound `COc1ccc(S(=O)(=O)NCCCN2CCCC2=O)cc1OC`, the solubility (kinetic) was 47.4 µg/mL (≈ 138 µM).
Under `C/C(=N\NC(=O)c1cccc([N+](=O)[O-])c1)c1ccncc1` stands above 42.6 µg/mL.
Compound `Clc1ccc(-c2cn3cc(Cl)ccc3n2)cc1` registered a solubility (kinetic) below 0.3 µg/mL.
`CC(=O)c1cccc(NC(=O)CN(C)S(=O)(=O)c2ccccc2)c1` gave a solubility (kinetic) above 52 µg/mL.
